22 molecules from patent EP4813993A1, “COMPOUND, PREPARATION METHOD THEREFOR, AND USE THEREOF” (Sichuan Kelun Pharmaceutical Research Institute Co., Ltd., priority 2023, dated 2025) can be followed below.

T1 sequence (Q9Y5Y9 whole entry): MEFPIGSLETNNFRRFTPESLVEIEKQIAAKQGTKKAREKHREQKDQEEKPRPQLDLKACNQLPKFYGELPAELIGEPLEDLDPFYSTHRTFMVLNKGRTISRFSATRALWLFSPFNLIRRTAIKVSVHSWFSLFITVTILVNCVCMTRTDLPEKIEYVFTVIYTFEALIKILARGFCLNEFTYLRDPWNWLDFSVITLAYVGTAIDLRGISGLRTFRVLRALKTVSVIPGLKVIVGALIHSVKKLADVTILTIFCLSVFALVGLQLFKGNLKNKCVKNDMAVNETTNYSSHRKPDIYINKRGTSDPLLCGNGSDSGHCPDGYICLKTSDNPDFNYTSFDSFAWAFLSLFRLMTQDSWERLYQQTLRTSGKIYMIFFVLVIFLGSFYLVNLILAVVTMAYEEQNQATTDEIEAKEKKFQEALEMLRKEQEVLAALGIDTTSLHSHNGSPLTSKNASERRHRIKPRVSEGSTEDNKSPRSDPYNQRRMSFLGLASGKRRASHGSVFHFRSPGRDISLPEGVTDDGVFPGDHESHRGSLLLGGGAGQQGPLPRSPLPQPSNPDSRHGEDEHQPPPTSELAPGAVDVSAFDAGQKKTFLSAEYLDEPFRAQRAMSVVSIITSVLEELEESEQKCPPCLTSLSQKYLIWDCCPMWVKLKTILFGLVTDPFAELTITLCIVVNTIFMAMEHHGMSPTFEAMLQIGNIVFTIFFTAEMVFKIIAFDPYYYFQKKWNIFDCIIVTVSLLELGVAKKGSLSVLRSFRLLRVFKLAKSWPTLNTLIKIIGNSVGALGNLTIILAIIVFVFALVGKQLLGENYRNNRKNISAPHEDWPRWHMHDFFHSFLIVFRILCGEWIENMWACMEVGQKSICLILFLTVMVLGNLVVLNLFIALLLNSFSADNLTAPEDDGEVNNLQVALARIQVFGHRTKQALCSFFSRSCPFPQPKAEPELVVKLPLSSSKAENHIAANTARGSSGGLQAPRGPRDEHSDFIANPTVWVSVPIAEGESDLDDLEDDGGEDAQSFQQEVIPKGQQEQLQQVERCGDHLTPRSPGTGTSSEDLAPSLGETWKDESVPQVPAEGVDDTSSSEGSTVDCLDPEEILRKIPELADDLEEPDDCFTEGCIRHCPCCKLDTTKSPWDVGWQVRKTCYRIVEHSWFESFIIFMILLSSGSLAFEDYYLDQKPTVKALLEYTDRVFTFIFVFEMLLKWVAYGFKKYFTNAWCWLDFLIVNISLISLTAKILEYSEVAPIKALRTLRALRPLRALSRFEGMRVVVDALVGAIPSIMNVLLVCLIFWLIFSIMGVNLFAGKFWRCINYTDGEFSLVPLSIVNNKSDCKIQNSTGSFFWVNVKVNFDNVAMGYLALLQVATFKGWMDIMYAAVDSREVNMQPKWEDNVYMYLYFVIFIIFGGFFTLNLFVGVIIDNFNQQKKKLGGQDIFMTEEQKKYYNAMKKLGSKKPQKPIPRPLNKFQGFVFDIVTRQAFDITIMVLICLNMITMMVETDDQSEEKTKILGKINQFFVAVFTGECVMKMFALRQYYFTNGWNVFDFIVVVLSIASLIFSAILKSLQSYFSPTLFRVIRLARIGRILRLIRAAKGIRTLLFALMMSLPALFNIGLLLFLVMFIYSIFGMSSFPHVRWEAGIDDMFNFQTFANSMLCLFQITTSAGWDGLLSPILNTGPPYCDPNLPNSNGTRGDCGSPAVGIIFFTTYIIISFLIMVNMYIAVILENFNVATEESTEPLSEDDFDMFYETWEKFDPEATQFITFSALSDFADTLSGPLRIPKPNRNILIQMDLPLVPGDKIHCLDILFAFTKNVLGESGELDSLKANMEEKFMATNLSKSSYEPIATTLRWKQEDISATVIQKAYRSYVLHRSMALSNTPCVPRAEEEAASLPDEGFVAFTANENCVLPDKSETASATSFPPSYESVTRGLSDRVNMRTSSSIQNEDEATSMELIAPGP

The first experiment concerns the target T1, Nav1.8 channels (Homo sapiens, UniProt Q9Y5Y9).
T1 construct: expressed in transfected cells
The experiment can be described thus: Manual patch-clamp, current of stably overexpressed Nav1.8 channels (resting state voltage program). The class given is cell-based.
Conditions: not given
The protocol:
Experimental Example 1: Effects of test substances on current of stably overexpressed Nav1.8 channels monitored via manual patch-clamp technique
Test compounds were dissolved in dimethyl sulfoxide (DMSO).
The extracellular fluid was as follows: 140 mM NaCl, 3.5 mM KCl, 1 mM MgCl2•6H2O, 2 mM CaCl2•2H2O, 10 mM D-Glucose, 10 mM HEPES, 1.25 mM NaH2PO4•2H2O; the pH was adjusted to 7.4 with NaOH. The intracellular fluid was as follows: 50 mM CsCl, 10 mM NaCl, 10 mM HEPES, 60 mM CsF, 20 mM EGTA; the pH was adjusted to 7.2 with CsOH.
2. Experimental materials and instruments
• 1) patch-clamp amplifier: EPC 10 (HEKA) • 2) micromanipulator: MP225 (Sutter Instrument) • 3) inverted microscope: MF53 (Mshot) • 4) micropipette puller: P97 (Sutter Instrument) • 5) capillary glass tube: BF150-86-10 (Sutter Instrument)
3. Experimental procedures
• 1) After the compounds were prepared into solutions with specified concentrations, the solutions were sequentially added to the pipeline of the drug delivery system and labeled. • 2) The cell climbing coverslip was placed in the recording chamber, the appropriate cells were selected under the inverted microscope, and the position of the drug delivery tip was adjusted. • 3) A capillary glass tube was pulled into a suitable recording electrode using the micropipette puller, and then the electrode filled with the intracellular fluid was mounted in the microelectrode holder. The micromanipulator was adjusted under the inverted microscope to allow the recording electrode to contact the cell, and negative pressure was applied to the electrode to form a high-resistance seal. At this time, fast capacitance compensation was performed, and then the application of negative pressure was continued to break the cell membrane, forming a whole-cell recording mode. Finally, slow capacitance compensation was performed, and related parameters were recorded. • 4) After the cell current stabilized, administration was started. Each concentration of the drug was applied for five minutes or until the current stabilized before proceeding to monitor the next concentration. The drug solutions were administered via gravity-fed delivery, flowing through the recording chamber to act on the cells in an ascending order of concentration (from low to high). A peristaltic pump was employed for solution exchange in the recording process.
4 Test voltage program (resting state) and results
After the formation of the whole-cell seal, the cell voltage was clamped at -120 mV, followed by depolarization to 0 mV using a square-wave pulse with a duration of 50 ms to elicit Nav1.8 currents. This procedure was repeated every 20 s to monitor the maximum current induced by the square wave. After the current stabilized, the test compounds were administered. Once the response stabilized, the intensity of the current block was calculated.
For orientation: In patch-clamp work, channel activity is measured electrically.
What is called IC50 is the concentration that gives 50% inhibition. Low readings indicate greater potency in that assay, high ones weaker potency in that assay. The molecule `COc1c([C@@H]2C[C@](C)(C(F)(F)F)S[C@H]2C(=O)Nc2cccc(N=[N+]=[N-])c2)ccc(F)c1F` [a-29-A, (2R,3S,5R)-N-(3-azidophenyl)-3-(3,4-difluoro-2-methoxyphenyl)-5-methyl-5-(trifluoromethyl)tetrahydrothiophene-2-carboxamide] had an IC50 of 5 pM.

As for `COc1c([C@@H]2C[C@](C)(C(F)(F)F)S[C@H]2C(=O)Nc2cccc(B3OC(=O)CN(C)CC(=O)O3)c2)ccc(F)c1F` [a-35-A, (2R,3S,5R)-3-(3,4-difluoro-2-methoxyphenyl)-5-methyl-N-(3-(6-methyl-4,8-dioxo-1,3,6,2-diazaborinin-2-yl)phenyl)-5-(trifluoromethyl)tetrahydrothiophene-2-carboxamide], inhibition was half-maximal at 690 pM (IC50).

The same experiment, now with this note: concentration of 1 nM, 0.001 µM.
On to `COc1c(C2CC(C)(C(F)(F)F)SC2C(=O)Nc2ccc(F)c(N=S(C)(C)=O)c2)ccc(F)c1F` (stereo not shown) [a-22, 3-(3,4-difluoro-2-methoxyphenyl)-N-(3-((dimethyl(oxo)-16-sulfonamido)amino)-4-fluorophenyl)-5-methyl-5-(trifluoromethyl)tetrahydrothiophene-2-carboxamide], for which the Inhibition rate (%) is 80.7%.

Still in this experiment, the particulars now being: concentration of 1 nM, read-out: Inhibition rate %.
Usually inhibition stands for the percentage by which the read-out fell short of the control. As for `COc1c([C@@H]2C[C@](C)(C(F)(F)F)S[C@H]2C(=O)Nc2ccc(F)c(CO)c2)ccc(F)c1F` [Compound 254-A, (2R,3S,5R)-3-(3,4-difluoro-2-methoxyphenyl)-N-(4-fluoro-3-(hydroxymethyl)phenyl)-5-methyl-5-(trifluoromethyl)tetrahydrothiophene-2-carboxamide], the inhibition at 0.001 µM is 76.8%.

`COc1c([C@@H]2C[C@](C)(C(F)(F)F)S[C@H]2C(=O)Nc2ccc3c(c2)B(O)NC3=O)ccc(F)c1F` [Compound a-2, (2R,3S,5R)-3-(3,4-difluoro-2-methoxyphenyl)-N-(1-hydroxy-3-oxo-2,3-dihydro-1H-benzo[c][1,2]azaborol-6-yl)-5-methyl-5-(trifluoromethyl)tetrahydrothiophene-2-carboxamide]: the inhibition at 0.001 µM was 83.9%.

Regarding `COc1c(C2CC(C)(C(F)(F)F)SC2C(=O)Nc2ccc(F)c(N=S(C)(C)=O)c2)ccc(F)c1F` (stereo not shown) [a-15], the inhibition at 0.001 µM turned out to be 70.9%.

For `COc1c([C@@H]2C[C@](C)(C(F)(F)F)S[C@H]2C(=O)Nc2cn(S(=O)(=O)C3CC3)nc2C)ccc(F)c1F` [a-21-A, (2R,3S,5R)-N-(1-(cyclopropylsulfonyl)-3-methyl-1H-pyrazol-4-yl)-3-(3,4-difluoro-2-methoxyphenyl)-5-methyl-5-(trifluoromethyl)tetrahydrothiophene-2-carboxamide], the inhibition at 0.001 µM came to 84.6%.

In the case of `COc1c([C@@H]2C[C@](C)(C(F)(F)F)S[C@H]2C(=O)Nc2ccc3c(c2)C(=O)NC3=O)ccc(F)c1F` [a-23-A, (2R,3S,5R)-3-(3,4-difluoro-2-methoxyphenyl)-N-(1,3-dioxoisoindol-5-yl)-5-methyl-5-(trifluoromethyl)tetrahydrothiophene-2-carboxamide], the inhibition at 0.001 µM was 56.5%.

As to `COc1c([C@@H]2C[C@](C)(C(F)(F)F)S[C@H]2C(=O)Nc2cnnc(N=[N+]=[N-])c2)ccc(F)c1F` [a-30-A, (2R,3S,5R)-(4-(3-(3,4-difluoro-2-methoxyphenyl)-5-methyl-5-(trifluoromethyl)tetrahydrothiophene-2-carboxamido)-6-azido)pyridazine], the inhibition at 0.001 µM is 74.5%.

With `COc1c([C@@H]2C[C@](C)(C(F)(F)F)S[C@H]2C(=O)Nc2ccc(F)c(N=[N+]=[N-])c2)ccc(F)c1F` [a-31-A, (2R,3S,5R)-N-(3-azido-4-fluorophenyl)-3-(3,4-difluoro-2-methoxyphenyl)-5-methyl-5-(trifluoromethyl)tetrahydrothiophene-2-carboxamide], the inhibition at 0.001 µM came out at 81.9%.

As to `COc1c([C@@H]2C[C@](C)(C(F)(F)F)S[C@H]2C(=O)Nc2cccc(OS(N)(=O)=O)c2)ccc(F)c1F` [a-39-A, (3-((2R,3S,5R)-3-(3,4-difluoro-2-methoxyphenyl)-5-methyl-5-(trifluoromethyl)tetrahydrothiophene-2-carboxamido)phenyl sulfamate], the inhibition at 0.001 µM worked out at 72%.

The same experiment, now with this note: concentration of 10 nM, read-out: Inhibition rate %.
`COc1c(C2CC(C)(C(F)(F)F)SC2C(=O)Nc2cccc(S(=O)(=O)NC#N)c2)ccc(F)c1F` (stereo not shown) [Compound a-9, N-(3-(N-cyanosulfamoyl)phenyl)-3-(3,4-difluoro-2-methoxyphenyl)-5-methyl-5-(trifluoromethyl)tetrahydrothiophene-2-carboxamide]: the inhibition at 0.01 µM was 85.3%.

Turning to `COc1c([C@@H]2C[C@](C)(C(F)(F)F)S[C@H]2C(=O)Nc2ccc(=O)[nH]n2)ccc(F)c1F` [a-3-A, (2R,3S,5R)-3-(3,4-difluoro-2-methoxyphenyl)-5-methyl-N-(6-oxo-1,6-dihydropyridazin-3-yl)-5-(trifluoromethyl)tetrahydrothiophene-2-carboxamide], the inhibition at 0.01 µM stood at 80.2%.

On to `COc1c([C@@H]2C[C@](C)(C(F)(F)F)S[C@H]2C(=O)Nc2ccc3c(c2)B(O)OC3=O)ccc(F)c1F` [a-6-A, (2R,3S,5R)-3-(3,4-difluoro-2-methoxyphenyl)-N-(1-hydroxy-3-oxo-1,3-dihydrobenzo[c][1,2]oxaborol-6-yl)-5-methyl-5-(trifluoromethyl)tetrahydrothiophene-2-carboxamide], for which the inhibition at 0.01 µM came out at 76.9%.

`COc1c(C2CC(C)(C(F)(F)F)SC2C(=O)Nc2ccnc(N=S(C)(C)=O)c2)ccc(F)c1F` (stereo not shown) [a-10, 3-(3,4-difluoro-2-methoxyphenyl)-N-(2-((dimethyl(oxo)-16-sulfanylidene)amino)pyridin-4-yl)-5-methyl-5-(trifluoromethyl)tetrahydrothiophene-2-carboxamide]: the inhibition at 0.01 µM was determined as 88%.

As for `COc1c(C2CC(C)(C(F)(F)F)SC2C(=O)Nc2ccnc(NO)c2)ccc(F)c1F` (stereo not shown) [a-16, (4-(3-(3,4-difluoro-2-methoxyphenyl)-5-methyl-5-(trifluoromethyl)tetrahydrothiophene-2-carboxamido)-2-hydroxylamine)pyridine], the inhibition at 0.01 µM was 92.3%.

For `COc1c([C@@H]2C[C@](C)(C(F)(F)F)S[C@H]2C(=O)Nc2ccc(F)c(C/C(C#N)=C(\C)O)c2)ccc(F)c1F` [a-17-A, (2R,3S,5R)-N-(3-((Z)-2-cyano-3-hydroxybut-2-enyl)-4-fluorophenyl)-3-(3,4-difluoro-2-methoxyphenyl)-5-methyl-5-(trifluoromethyl)tetrahydrothiophene-2-carboxamide], the inhibition at 0.01 µM is 65.5%.

As for `COc1c([C@@H]2C[C@](C)(C(F)(F)F)S[C@H]2C(=O)Nc2cccc(NS(N)(=O)=O)c2)ccc(F)c1F` [a-18-A, (2R,3S,5R)-3-(3,4-difluoro-2-methoxyphenyl)-5-methyl-N-(3-(sulfamoylamino)phenyl)-5-(trifluoromethyl)tetrahydrothiophene-2-carboxamide], the inhibition at 0.01 µM amounted to 86.3%.

In the case of `COc1c(C2CC(C)(C(F)(F)F)SC2C(=O)Nc2cccc(NS(=O)(=O)CCN)c2)ccc(F)c1F` (stereo not shown) [a-25, N-(3-((2-aminoethyl)sulfonamido)phenyl)-3-(3,4-difluoro-2-methoxyphenyl)-5-methyl-5-(trifluoromethyl)tetrahydrothiophene-2-carboxamide], the inhibition at 0.01 µM came to 96.5%.

For `COc1c([C@@H]2C[C@](C)(C(F)(F)F)S[C@H]2C(=O)Nc2ccc3c(c2)S(=O)(=O)NCN3)ccc(F)c1F` [a-26-A, (2R,3S,5R)-3-(3,4-difluoro-2-methoxyphenyl)-N-(1,1-dioxide-3,4-dihydro-2H-benzo[e][1,2,4]thiadiazin-7-yl)-5-methyl-5-(trifluoromethyl)tetrahydrothiophene-2-carboxamide], the inhibition at 0.01 µM was 95.6%.

For `COc1c(C2CC(C)(C(F)(F)F)SC2C(=O)Nc2ccc3c(c2)S(=O)(=O)N=CN3)ccc(F)c1F` (stereo not shown) [a-28-A, 7-(3-(3,4-difluoro-2-methoxyphenyl)-5-methyl-5-(trifluoromethyl)tetrahydrothiophene-2-carboxamido)-4H-benzo[e][1,2,4]thiadiazine-1,1-dioxide], the inhibition at 0.01 µM worked out at 80.6%.

Take `COc1c([C@@H]2C[C@](C)(C(F)(F)F)S[C@H]2C(=O)Nc2ccc3c(c2)S(=O)(=O)NC3=O)ccc(F)c1F` [a-36-A, (2R,3S,5R)-3-(3,4-difluoro-2-methoxyphenyl)-N-(1,1-dioxide-3-oxo-2,3-dihydrobenzo[d]isothiazol-6-yl)-5-methyl-5-(trifluoromethyl)tetrahydrothiophene-2-carboxamide]: the inhibition at 0.01 µM was 83.7%.
